Experimental data taken from patent US8394773B2, “Use of an alkyl glycoside or of a mixture of alkyl glycosides having anti-ageing and/or calming properties as active agents in cosmetic compositions, and methods of cosmetic care using said compositions” (LVMH Recherche, priority 2008, dated 2013).

Experiments:
[1] = tested on: Il-8; test: Quantification of the release of Il-8 into culture supernatants of HaCaT keratinocytes stimulated with Il-1 beta (ELISA, related to total proteins); assay type: cell-based, human; details: for Inhibitory activity (%) (release of Il-8) / Liberation Il-8 (%) / pg IL8/mg prot: alkyl glycoside alone at 1 μM, 24 hours; for Inhibitory activity (%) (release of Il-8) / Liberation Il-8 (%): HaCaT + Il-1 beta; for Liberation Il-8 (%): control (-) = 100; for pg IL8/mg prot: HaCaT stimulated with Il-1 beta 25 ng/ml; for anti-Il-8 activity, in words: compounds tested alone, 1 μM
Method: (§1) The release of the Il-8 and PGE2 markers into cell line culture supernatants of immortalized keratinocytes (HaCaT), stimulated for 24 hours in the presence of oligosaccharides is quantified.
(§2) HaCaTs are cultured to 80% confluence.
(§3) A treatment is carried out over 24 hours with the product to be evaluated with, in the case of Il-8 alone, a parallel stimulation with interleukin-1.
(§4) The culture supernatants containing the markers are collected and stored at −20° C. up to the day of the assay.
(§5) The assay is carried out with the aid of a kit specific for each of the markers.
The assay of human Il-8 by means of the ELISA AbC204/3 kit (Abcys).
(§6) These HaCaTs are inoculated at the rate of 10 000 cells/well (supplemented KSFM culture medium, Gibco) in a 96-well microplate.
(§7) The plate is placed in an incubator (37° C. and 5% CO2) for 24 hours.
(§8) The oligosaccharides, initially in the form of a 1 mM stock solution in DMSO, are exposed to the cells after suitable dilution in culture medium.
In parallel, for Il-8, the cells are stimulated with Il-1 beta at 25 ng/ml.
A column is treated with cholecalciferol (vitamin D3) at 0.39 μg/ml and stimulated with Il-1 beta, as positive control inhibiting the release of Il-8.
A control column is not treated and stimulated with Il-1 beta.
(§9) Each concentration of product, the positive control and the control without treatment, are evaluated on 4 or 6 wells of HaCaT.
(§10) After 24 hours of treatment, the culture supernatants are collected and stored at −20° C.
(§11) The assay is carried out according to the protocol described in each of the kits, by an immunoenzymatic test which makes it possible to assay, by spectrophotometric measurement at 450 nm, the respective quantities of Il-8 and of PGE2 present in the supernatants.
(§12) The absorbance (OD) values obtained for the 2-fold dilution series for IL-8 standard and PGE2 standard (7 concentrations, in duplicate) are plotted on a logarithmic graph.
(§13) The known concentrations of IL-8 and PGE2, expressed in pg/ml, are plotted on the x-axis and the absorbance values on the y-axis, in order to obtain a straight line.
(§14) The absorbance values measured for each sample are in turn plotted on the graph, in order to determine the respective IL-8 and PGE2 concentrations, expressed in pg/ml.
(§15) The assay (in mg/ml) of the total proteins present in the cellular pellets, after treatment or non-treatment of the HaCaTs, makes it possible to relate the assay of IL-8 and of PGE2 to the quantity of proteins in each well of cells, expressed in picograms (pg) of markers per milligram (mg) of proteins.
(§16) The absorbance values for the 6 wells are converted to mg of proteins per well of HaCaT by means of the straight line obtained by the calibration series (quantity of proteins known for an absorbance determined at 570 nm).
(§17) Finally, for each well and each treatment condition, a quantitative assay of the release of Il-8 and of PGE2 is obtained, in pg/ml.
This assay is related to a quantity of proteins, expressed in mg/ml. The final quantitative result for Il-8 is therefore expressed in pg/mg of proteins.
The percentage inhibition of the production of IL-8 is calculated as follows: […]
The test is carried out at a concentration of alkyl glycosides equal to 1 μM, after dilution in the culture medium, the negative control is pure DMSO.

[2] = tested on: PGE2; test: Quantification of the release of PGE2 into culture supernatants of HaCaT keratinocytes (immunoenzymatic kit, related to total proteins); assay type: cell-based; details: for Inhibitory activity (%) (release of PGE2) / pg PGE2/mg prot / Liberation PGE2 (%): alkyl glycoside alone at 1 μM, 24 hours, HaCaT; for Liberation PGE2 (%): control (-) = 100
Method: PGE2 is an important marker of inflammatory response linked to tissue damage. It is produced by a wide variety of cells including monocytes, macrophages or keratinocytes.
as §1, §2, §3, §4, §5
Assay of PGE2 by means of the Parameter PGE2 kit (R&D system).
as §6, §7, §8
A column is treated with indomethacin as positive control inhibiting the release of PGE2.
as §9, §10, §11, §12, §13, §14, §15, §16, §17
The test is carried out at a concentration of alkyl glycosides equal to 1 μM, after dilution in the culture medium.

Structure (SMILES)	Inhibitory activity (%) (release of Il-8) [1]	Liberation Il-8 (%) [1] [%]	pg IL8/mg prot [1] [pg/mg prot]	Inhibitory activity (%) (release of PGE2) [2]	pg PGE2/mg prot [2] [pg/mg prot]	Liberation PGE2 (%) [2] [%]	anti-Il-8 activity, in words [1]	anti-Il-8 activity, in words ([1]; listed as dodecyl maltotrioside)	PGE2 inhibiting activity, in words ([2]; compounds tested alone, 1 μM)
CCCCCCCCO[C@@H]1O[C@H](CO)[C@@H](O)[C@H](O)[C@H]1O [DP1-8, n-Octyl-beta-D-glucopyranoside, reference compound]	9.1	91.0	1121.6	0.3	312.8	99.7	–	–	–
CCCCCCCCCCCCO[C@@H]1O[C@H](CO)[C@@H](O)[C@H](O)[C@H]1O [DP1-12, n-dodecyl-beta-D-glucopyranoside, reference compound]	24.6	75.4	930.3	52.2	150.0	47.8	–	–	–
CO[C@@H]1O[C@H](CO)[C@@H](O[C@H]2O[C@H](CO)[C@@H](O)[C@H](O)[C@H]2O)[C@H](O)[C@H]1O [DP2-1, methyl beta-D-maltoside]	59.6	40.4	497.7	58.2	131.3	41.8	–	–	–
CCCCCCCCO[C@@H]1O[C@H](CO)[C@@H](O[C@H]2O[C@H](CO)[C@@H](O)[C@H](O)[C@H]2O)[C@H](O)[C@H]1O [DP2-8, octyl beta-D-maltoside]	69.4	30.6	377.7	37.7	195.5	62.3	–	–	–
CCCCCCCCCCCCO[C@@H]1O[C@H](CO)[C@@H](O[C@H]2O[C@H](CO)[C@@H](O)[C@H](O)[C@H]2O)[C@H](O)[C@H]1O [DP2-12, dodecyl beta-D-maltoside]	82.9	17.1	211.0	49.1	159.8	50.9	–	–	–
CO[C@@H]1O[C@H](CO)[C@@H](O[C@H]2O[C@H](CO)[C@@H](O[C@H]3O[C@H](CO)[C@@H](O)[C@H](O)[C@H]3O)[C@H](O)[C@H]2O)[C@H](O)[C@H]1O [DP3-1, methyl beta-D-maltotrioside]	71.9	28.1	346.6	49.1	159.6	50.9	–	–	–
CCCCCCCCCCCCO[C@@H]1O[C@H](CO)[C@@H](O[C@H]2O[C@H](CO)[C@@H](O[C@H]3O[C@H](CO)[C@@H](O)[C@H](O)[C@H]3O)[C@H](O)[C@H]2O)[C@H](O)[C@H]1O [DP3-12, dodecyl beta-D-maltotrioside]	20.1	79.9	521.5	18.8	171.8	81.2	acts on both markers	very small effect on the release of Il-8	acts on both markers
